Here are results for five compounds from paper PMC10780244, “Antileishmanial Effect of 1,5- and 1,8-Substituted Fused Naphthyridines” (Molecules, 2023).

In data set [1] the test system is murine intestinal organoids. Nature of the data set: Drug tolerance in murine intestinal organoids (alamarBlue). The class given is cell-based, mouse. To be noted: 50 µM, 72 h exposure. The method, then: Amastigotes obtained from mouse bone marrow cells were used to perform a first screening with the complete series of fused 1,5- and 1,8-naphthyridines. […] The toxicity of these selected compounds was assessed in non-infected splenic cells and the cytotoxic concentration (CC50) value obtained was used to calculate the selective index (SI). The oral tolerability of these same compounds was tested by calculating the viability of murine intestinal organoids exposed to two concentrations (50 and 25 µM).
Preparation and maintenance of murine intestinal organoids cultures were performed following the protocols published by Stemcell Technologies™ (https://www.stemcell.com/intestinal-epithelial-organoid-culture-with-intesticult-organoid-growth-medium-mouse-lp.html#protocols, accessed on 14 December 2023) with some modifications. Briefly, a section of small intestine from a Balb/c mouse was extracted and washed with ice-cold PBS. This section was cut into pieces around 2 mm each, washed 15–20 times with ice-cold PBS and incubated with Gentle Cell Dissociation Reagent (Stemcell Technologies™, Vancouver, BC, Canada) for 20 min. Then, the pieces were resuspended in ice-cold PBS with 0.1% BSA and left to settle at the bottom of the tube. The supernatant was collected and filtered through a 70 µm strainer. This process was repeated a total of four times obtaining different fractions. Cells from these fractions were centrifugated at 300× g for 5 min at 4 °C, washed with ice-cold PBS + 0.1% BSA and resuspended on 10 mL of ice-cold DMEM/F12 supplemented with glutamine and HEPES 15 mM (Gibco, Thermo Fisher Scientific, Waltham, MA, USA). After the evaluation under a microscope, the fraction with the highest crypt number but the lowest detritus presence was chosen. This fraction was centrifugated at 200× g for 5 min at 4 °C and the pellet was resuspended in a 1:1 mix of Geltrex GFR LDEV-free (Gibco, Fisher Scientific, Waltham, MA, USA) and IntestiCult™ Organoid Grow Medium Mouse (Stemcell Technologies™, Vancouver, BC, Canada). Fifty microliters of the suspension were pipetted into the middle of each well of a pre-heated 24-well plate and incubated at 37 °C for 10 min to allow polymerization of the matrix. In the end, 500 µL of IntestiCult™ Organoid Grow Medium was added to each well. The plates were incubated at 37 °C and 5% CO2, changing the culture medium every 48 h. Organoids were split 1 into 4 plates after 7 days.
Drug tolerance assays using murine intestinal organoids were performed in 384-well plates, following a protocol based on previous works and introducing several modifications. Briefly, organoids were prepared discarding the culture medium and adding 800 µL of Gentle Cell Dissociation Reagent (Stemcell Technologies™, Vancouver, BC, Canada) directly on top of matrix domes. After 1 min incubation at room temperature, the matrix was broken by pipetting, and the content of the wells was retrieved. The suspension was incubated at room temperature for 10 min on a rocking platform at 20 rpm, and centrifugated at 300× g for 5 min at 4 °C. The pellet was resuspended in 10 mL of ice-cold DMEM/F12 (Gibco, Fisher Scientific, Waltham, MA, USA) supplemented with glutamine and HEPES 15 mM and centrifugated again at 200× g for 5 min at 4 °C. Cells were resuspended in a 1:1 mix of Geltrex GFR LDEV-free and IntestiCult™ Organoid Grow Medium Mouse (Stemcell Technologies™, Vancouver, Canada). The final volume of the mix was calculated to achieve a 4-fold dilution in the final plate compared to the original plate. The mix was distributed in a 384-well plate (8 µL/well) which was incubated at 37 °C for 10 min. After that, 32 µL of IntestiCult™ Organoid Grow Medium Mouse (Stemcell Technologies™, Vancouver, Canada) were added to each well. The plate was incubated at 37 °C and 5% CO2 and after 4 days, mature organoids were exposed to drugs, alone or combined. For positive control, hydrogen peroxide at the final concentration of 0.15 % v/v was used. […]

The test system of the next data set is two cancer cell lines. On the set-up: method as in PMID 31229877, PMID 32279049, PMID 33962152. To be noted: cited from earlier work.

Regarding `COc1ccc2c(n1)[C@@H](c1ccccc1)C1CN(S(=O)(=O)c3ccc(C)cc3)c3ccccc3C1N2` (some centres unmarked) [Compound 8c], in data set [1], the “Intestinal Organoids 50 µM (%Viability)” value is listed as above 100%.
Same read-out and setting: with `Fc1ccc2c(c1)C1Nc3ncccc3[C@@H](c3ccccc3)C1CO2` (some centres unmarked) [Compound 10b] the figure was 90 ± 22%.
Take `O=c1oc2ccccc2c2nc3ncccc3c(-c3ccccc3)c12` [Compound 13a]: in the data set with two cancer cell lines, the “cytotoxic effects on two cancer cell lines (concentration range)” value (“cytotoxic effects” below) is 1 to 15 µM.
As to `Cc1ccc(S(=O)(=O)N2CC3C(Nc4ncccc4C3c3ccccc3)c3ccccc32)cc1` (centres unmarked) [Compound 14a], the “cytotoxic effects” value in the data set with two cancer cell lines is 1 to 15 µM.
Take `Cc1ccc(S(=O)(=O)N2Cc3c(nc4ncc(Br)cc4c3-c3ccccc3)-c3ccccc32)cc1` [Compound 15b]: the “cytotoxic effects” value with two cancer cell lines was 1 to 15 µM.
